Patent publication US6884792B2, “Bretylium compositions and kits and their use in preventing and treating cardiovascular conditions” (priority 1999, dated 2005)
Structures can show the parent of a compound that is named as a salt. Where two headings read alike, the source gives them in different places. Values belong to the compound of their own block, whether it stands above or below them.

Experiments:
[1] = Procedure: To measure the partition coefficient for a facilitating anion in the presence of a bretylium compound, an acidified aqueous solution of the bretylium compound with a non-facilitating anion (e.g., tosylate, bromide or chloride) is first prepared. Sodium bicarbonate and a salt comprising the facilitating anion to be tested are then added to the aqueous solution. The salt comprising the facilitating anion should be added in an amount sufficient to provide about a 1:1 molar ratio of the facilitating anion to the bretylium cation. The sodium bicarbonate is provided in an amount sufficient to produce a preselected pH value. An equal volume of n-octanol is then added to this solution. The solution is shaken. The mixture is centrifuged to separate an octanol-rich layer and an aqueous-rich layer, and the distribution ratio of the bretylium cation between the octanol-rich phase and the aqueous-rich phase (that is, the partition coefficient) may be measured. This analytical approach is believed to provide a suitable model for evaluating the bioavailability of the bretylium cation when utilized with a facilitating anion.
Several formulations of the present invention were tested using an n-octanol/aqueous buffer system to measure the partition coefficients for the bretylium cation in the presence of the facilitating anions of those formulations. An acidified aqueous solution of bretylium tosylate was first prepared. Sodium bicarbonate and a salt comprising the facilitating anion to be tested was then added to the aqueous solution. The salt comprising the facilitating anion was added in an amount sufficient to provide a 1:1 molar ratio of the facilitating anion to the bretylium cation. The sodium bicarbonate was provided in an amount sufficient to produce one of 4 preselected pH values. An equal volume of n-octanol was then added to this solution and the solution was shaken. The mixture was centrifuged to separate an octanol layer and an aqueous layer, and the distribution ratio of the bretylium cation between the octanol-rich phase and the aqueous-rich phase (that is, the partition coefficient) was measured. This analytical approach provides a suitable model for evaluating the bioavailability of the bretylium cation in the compositions tested.
The aqueous bretylium tosylate solutions used in the procedure were prepared in the following manner. An amount of one of the buffer solutions described below (3.0 ml when the most acidic buffer solution was used, and 4.0 ml when the other 3 buffer solutions were used) was transferred to a beaker or an Erlenmeyer flask by pipette. To the buffer solution was added 50 mg of bretylium tosylate per ml of buffer solution and an equimolar amount of the sodium salt of the facilitating anion. For example, where the facilitating anion tested was di(2-ethylhexyl)sulfosuccinate, 54 mg of sodium di(2-ethylhexyl)sulfosuccinate was added per ml of buffer solution. […] Test solutions comprising other facilitating agents were prepared in a similar manner.
Each of the pharmaceutical compositions was tested using each of the following sodium bicarbonate buffer systems:
The first buffer solution was prepared by dissolving 1.0 g of sodium bicarbonate in 100 ml of 0.95M HCl. A pH meter equipped with a conventional glass electrode and a calomel reference electrode was used to measure the nominal pH of this solution and the other 3 buffer solutions.
The second buffer solution was prepared by dissolving 7.5 g of sodium bicarbonate in 100 ml of 0.95M HCl.
The third buffer solution was prepared by dissolving 8.0 g of sodium bicarbonate in 100 ml of 0.95M HCl.

[2] = system: mongrel dog; assay: Electrically induced atrial fibrillation, intravenous administration; type: in vivo; settings: single intravenous dose, 15 mg bretylium tosylate per kg
Procedure: This electrode catheter delivered stimulating shocks consisting of a train of square wave pulses of 1 msec duration at 60 Hz. Atrial fibrillation was induced at a current of 6 milliamps.
Defibrillation was first attempted using a single dose of bretylium tosylate (Arnar-Stone, McGaw Park, Ill.) administered intravenously (the dose corresponded to 15 mg of bretylium tosylate per kg of the recipient).
Subsequently, a composition containing bretylium tosylate and aspirin was administered intravenously into the jugular vein. This composition was prepared using a commercially available tablet containing aspirin. The aspirin tablet was dissolved in warm water and filtered through a fine surgical gauze pad (to remove the bulk of the binder in the tablet). The resulting aspirin filtrate was then combined with an approximately equimolar amount of bretylium tosylate dissolved in 5% dextrose in water. Approximately 20 ml of this aqueous solution was injected into jugular vein of the atrially fibrillating dog (this dose corresponded to roughly 15 mg of bretylium tosylate per kg of the recipient and 6.5 mg of aspirin per Kg recipient).

[3] = system: dogs; assay: VFT 1-5 hours after injection of bretylium tosylate and/or β-receptor blockers; type: in vivo, dog
Procedure: The increase in efficacy of the bretylium cation afforded by administering the bretylium cation in combination with a β-receptor blocker was tested by administering via injection bretylium tosylate alone, various β-receptor blockers alone, and various combinations of bretylium tosylate and β-receptor blockers to dogs, and then measuring the ventricular fibrillation threshold of the dogs 1-5 hours after drug administration.

[4] = system: dogs
[5] = system: Mongrel dogs; assay: Oral bretylium-tosylate/facilitating-anion combinations: VFT and EVRP; type: in vivo; settings: dog; 50 milliamps
Procedure: A catheter electrode was passed under fluoroscopic observation via the jugular vein into the apex of the right ventricle and screwed into place in the myocardium of the right ventricle. […] After the control VFT and EVRP were measured, the compositions were orally administered in capsule form via a stomach tube. […] The VFT and EVRP were measured at various times following this administration. […] See also FIGS. 8-10.

[6] = system: mongrel dog
Procedure: At time zero, a 5 milliamp stimulus was applied and a ventricular fibrillation threshold (VFT) was established.
At 1 hour and 20 minutes, the dog was given a 50 mg/kg dose of bretylium lauryl sulfate salt.
At three hours and twenty minutes, the dog's left anterior coronary artery was ligated to attempt to induce ventricular fibrillation by coronary occlusion.
Next, at three hours and thirty-seven minutes, 50 milliamps (the maximum current) was applied in an attempt to induce ventricular fibrillation and/or atrial fibrillation.

[7] = system: dog; settings: orally administered to a dog
[8] = water/octanol, relative to chloride; cited from earlier work
[9] = intravenous, about 20 mg bretylium tosylate per kg

Compound: CC[N+](C)(C)Cc1ccccc1Br.Cc1ccc(S(=O)(=O)[O-])cc1 [bretylium tosylate, 2-bromobenzylethyldimethylammonium p-toluenesulfonate, reference compound]
PARTITION COEFFICIENT ([1]; pH 0.8): 0.33
PARTITION COEFFICIENT ([1]; pH 2.1): 0.48
PARTITION COEFFICIENT ([1]; pH 5.5): 0.45
PARTITION COEFFICIENT ([1]; pH 7.7): 0.49
effect on atrial fibrillation [2]: No effect
Mean % Increase in VFT ([3]; per kg: 20 mg bretylium tosylate, no β-receptor blocker, 1-5 hours after administration): 100-200% (no standard
time after administration at which a substantial increase in ventricular fibrillation threshold began [4, 9]: 12 to 15 min
time after administration of peak increase in ventricular fibrillation threshold [4, 9]: About 3 hours

Compound: CCCCCCCCCCCCOS(=O)(=O)[O-].CC[N+](C)(C)Cc1ccccc1Br [bretylium lauryl sulfate salt, bretylium lauryl sulfate]
ventricular or atrial fibrillation despite maximum electrical stimulation [5]: did not occur
rhythm 46 minutes after administration despite attempts to reinitiate atrial fibrillation with electrical stimulation ([6]; FIG. 8 legend): maintained a normal sinus rhythm
fibrillation induced by electrical stimulation at 50 milliamps (maximum current) ([6]; at 3 h 37 min of experiment): No fibrillation (atrial or ventricular) could be induced
time after dose at which atrial fibrillation ceased entirely ([6]; dog, in vivo, 50 mg/kg): 19 min
time after dose to periods of normal sinus rhythm ([6]; dog, in vivo, 50 mg/kg): Approximately 18 minutes
ventricular fibrillation after release of the coronary occlusion ([6]; following two minutes after release at 3 h 35 min): no ventricular fibrillation was observed
ventricular fibrillation on ligation of left anterior coronary artery ([6]; ligated at 3 h 20 min of experiment, 2 h after 50 mg/kg dose): No ventricular fibrillation was observed
antifibrillatory activity [7]: active antifibrilant

Compound: CC[N+](C)(C)Cc1ccccc1Br.O=C([O-])c1ccccc1O [Bretylium Salicylate, bretylium salicylate]
ventricular or atrial fibrillation despite maximum electrical stimulation [5]: did not occur

Compound: CC(C)NCC(O)COc1cccc2ccccc12 (centres unmarked) [propranolol]
Mean % Increase in VFT ([3]; per kg: 0.075 mg propranolol, no bretylium, 1-5 hours): 110% ± 40%
increase in the ventricular fibrillation threshold ([4]; intravenous propranolol alone, 0.05 to 0.5 mg/kg): 110%±40%

PARTITION COEFFICIENT ([1]; pH 0.8): 0.35
PARTITION COEFFICIENT ([1]; pH 2.2): 0.49
PARTITION COEFFICIENT ([1]; pH 5.5): 0.51
PARTITION COEFFICIENT ([1]; pH 7.7): 2.33
Compound: CCCCC(CC)COP(=O)(O)OCC(CC)CCCC (centres unmarked) [di(2-ethylhexyl)phosphate]

Compound: CC(C)NCC(O)COc1ccc(CC(N)=O)cc1 (centres unmarked) [atenolol]
Mean % Increase in VFT ([3]; per kg: 0.05 mg atenolol, no bretylium, 1-5 hours): 330% ± 210%

Compound: COC(=O)CCc1ccc(OCC(O)CNC(C)C)cc1 (centres unmarked) [esmolol]
Mean % Increase in VFT ([3]; per kg: 25 to 300 μg esmolol, no bretylium, 1-5 hours): no significant increase

PARTITION COEFFICIENT ([1]; pH 5.5): 4.16
PARTITION COEFFICIENT ([1]; pH 5.6): 4.94
PARTITION COEFFICIENT ([1]; pH 7): 5.03
PARTITION COEFFICIENT ([1]; pH 7.7): 3.61
Compound: CCCCC(CC)COC(=O)CC(C(=O)OCC(CC)CCCC)S(=O)(=O)O (centres unmarked) [di(2-ethylhexyl)sulfosuccinate]

Compound: Cc1ccc(S(=O)(=O)O)cc1 [tosylate anion, tosylate]
organic/aqueous phase distribution constant (K) [8]: about 320

Compound: lauryl sulfate
PARTITION COEFFICIENT ([1]; n-octanol/buffer, nominal pH 0.8, 1:1 molar facilitating anion:bretylium tosylate): 1.91
PARTITION COEFFICIENT ([1]; n-octanol/buffer, nominal pH 2.2, 1:1 molar facilitating anion:bretylium tosylate): 3.54
PARTITION COEFFICIENT ([1]; n-octanol/buffer, nominal pH 5.5, 1:1 molar facilitating anion:bretylium tosylate): 3.71
PARTITION COEFFICIENT ([1]; n-octanol/buffer, nominal pH 7.0, 1:1 molar facilitating anion:bretylium tosylate): 4.01

Compound: COCCc1ccc(OCC(O)CNC(C)C)cc1 (centres unmarked) [metoprolol]
Mean % Increase in VFT ([3]; per kg: 0.05 mg metoprolol, no bretylium, 1-5 hours): 96% ± 70%
